Measured values: patent US6787566B2, “Breakers of advanced glycation endproducts” (City of Hope, priority 1999, dated 2004)

Experiments:
[1] = biological target: T1, native and glycated β-amyloid (1-40) peptide fibrils (Homo sapiens, UniProt P05067); test: Thioflavine T fluorescence assay of β-amyloid fibril disaggregation; format: biochemical; settings: ThT assay
T1 construct: β-amyloid (1-40) peptide was from Bachem (Torrance, Calif.); purchased Bachem (Torrance, Calif.)
Experimental: Both dyes have been adapted to in vitro measurements of amyloid fibril formation and quantification. ThT binding to β-amyloids gives rise to a large fluorescence excitation spectral shift that allows selective excitation of the amyloid fibril bound ThT (Tjernberg et al., 1999). In the present study, we have investigated the disaggregation of both native (unmodified) and glycated β-amyloid (1-40) peptide by the AGE-breaker compounds introduced here. Stock solutions of peptide were dissolved in deionized water at a concentration of 1 mg/mL. For AGE crosslinking experiments, they were incubated in 4 mL polypropylene tubes at a concentration of 250 μg/mL (60 μM) and 50 mM glucose in 50 mM sodium phosphate buffer, pH 7.9, at 50° C. in the dark for 5 days. Sodium azide (0.01% w/v) was added to prevent microbiological growth. In long-term experiments, water was added every 12 hours to compensate for solvent evaporation. AGE-β-amyloid was then dialyzed against double-distilled water using Spectra/Por CE dialysis membrane (molecular mass cut off: 1000 Da), and then freeze dried. Two sets of experiments were prepared for each compound. Solutions for the first experiment contained 100 μM of β-amyloid in 50 mM Tris-buffered saline (TBS) pH 7.4, and […] (the drugs were dissolved in DMSO and the solutions were prepared for dilution from this DMSO stock). The second set contained 100 μM of β-amyloid in TBS and 100 μM of one compound. The reactions were incubated at 37° C. for 24 hours without stirring (stagnant assay). Control experiments were prepared accordingly except that no AGE-breaker compounds were added to the tubes. The same protocol was used for both native and glycated β-amyloid peptides. The incubated samples are vortexed and 40 μL aliquots are withdrawn and mixed with 960 μL of 10 μM ThT in 10 mM sodium phosphate-buffer. Fluorescence measurements were taken with excitation of 437 nm and emission at 485 nm. Slit widths are set to 5 nm.

[2] = system: IgG-AGE cross-linked to the rat RBC surface; test: Cleavage of IgG-AGE cross-linked to RBC surface, anti-IgG ELISA; format: cell-based; settings: RBCs of diabetic rats vs diabetic and non-diabetic controls; FIG. 6
Experimental: IgG cross-linked to the RBC surface was determined with an anti-IgG by a modification of the method described by Vasan et al. (1996). Briefly, heparinized blood was drawn from the tail vein in capillary tubes, inverted several times, then centrifuged at 200×g for five minutes at room temperature. RBCs were washed three times with PBS in 0.5 mL microfuge tubes and packed with a final centrifugation at 500×g. Red cells were diluted at 1:10 to 1:100 in Dulbecco's Modified Eagle's Medium that is normal for glucose. Experimental compounds were added at desired concentrations and incubated at 37° C. in a CO2 incubator for 24 hours in sterile conditions. Control incubations contained RBCs and PBS alone. After incubation, RBCs were washed three times in PBS and packed cells diluted 1:200 to 1:500. The RBC suspensions were gently vortexed and 50 μL aliquots added to 450 μL of a polyclonal rabbit anti-rat IgG conjugated to alkaline phosphatase (diluted 1:2500 in PBS). […] The RBCs were pelleted and the supernatant was read at […] in either a conventional spectrometer or an ELISA reader. Blank readings were obtained by incubating tubes without cells.

[3] = biological target: T2, cross-linked collagen-AGE-BSA (Rattus norvegicus, UniProt P02454+P02466); test: AGE-BSA-collagen ELISA: cleavage of glycated BSA cross-linked to collagen; format: biochemical; settings: for AGE-breaking activity (cleavage of cross-linked collagen-AGE-BSA), in words: 0.1-10 mM final concentration, FIGS. 1A and 1C; for Concentration dependence of AGE-BSA-collagen crosslink breaking, in words: FIGS. 1A-C
T2 construct: purchased Biocoat (Collaborative Research, Bedford, Mass.) for the collagen-coated plates; Sigma Chemical co. for bovine serum albumin
Experimental: In vitro evaluation of the ability of the AGE-breaker compounds to cleave and break cross-linking of glycated BSA (AGE-BSA) (prepared as described (Rahbar et al., 1999)) to the rat-tail-tendon-collagen was by a special ELISA (Vasan et al., 1996). The rat-tail-tendon-collagen coated plates were first blocked first with 300 μL of Superblock blocking buffer (Pierce Chemicals, Rockford, Ill.) for one hour. The blocking solution was removed from the wells by washing the plates twice with PBS-0.05% Tween 20 (PBS-T) using a Dynatech ELISA-plate washer. Cross-linking of various concentrations of AGE-BSA (0, 0.01, 0.05, 0.1, 0.25, 0.50, and 1.0 μg per well) to rat-tail-collagen coated plates was performed without the testing compound, and the plates were incubated for 5 hours at 37° C. After washing the wells three times with PBS-T to remove the unattached AGE-BSA, test concentrations of the compound (50 μL/well) dissolved in PBS were added to wells in triplicate and incubation continued at 37° C. overnight. After washing with PBS-T, the amount of BSA remaining attached to the tail collagen plate was then quantified by addition of rabbit anti-BSA polyclonal antibodies (50 μL/well) for 1 hour at 37° C. The wells were then washed three times with PBS-T and developed with the chromogenic substrate ABTS (100 μL/well). Absorbance was measured at 410 nm in microplate reader (BioRad, Hercules, Calif.).
The percentage breaking activity is calculated by the following formula: 100×[(A410, PBS control)−(A410, AGE-breaker compound)]/[A410, PBS control].

[4] = system: crosslinks formed in skin and tail collagen of diabetic rats; settings: cited from earlier work
β-amyloid fibrils = biological target: T3, β-amyloid fibrils (Homo sapiens, UniProt P05067); settings: 20 mM; cited from earlier work
T3 construct: β-AP (amino acids 1-40, from Bachem, Torrance, Calif.)
T3 sequence (P05067 672-711): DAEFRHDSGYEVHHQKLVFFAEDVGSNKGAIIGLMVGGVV

T2 sequence (P02454 152-1207 limits assumed): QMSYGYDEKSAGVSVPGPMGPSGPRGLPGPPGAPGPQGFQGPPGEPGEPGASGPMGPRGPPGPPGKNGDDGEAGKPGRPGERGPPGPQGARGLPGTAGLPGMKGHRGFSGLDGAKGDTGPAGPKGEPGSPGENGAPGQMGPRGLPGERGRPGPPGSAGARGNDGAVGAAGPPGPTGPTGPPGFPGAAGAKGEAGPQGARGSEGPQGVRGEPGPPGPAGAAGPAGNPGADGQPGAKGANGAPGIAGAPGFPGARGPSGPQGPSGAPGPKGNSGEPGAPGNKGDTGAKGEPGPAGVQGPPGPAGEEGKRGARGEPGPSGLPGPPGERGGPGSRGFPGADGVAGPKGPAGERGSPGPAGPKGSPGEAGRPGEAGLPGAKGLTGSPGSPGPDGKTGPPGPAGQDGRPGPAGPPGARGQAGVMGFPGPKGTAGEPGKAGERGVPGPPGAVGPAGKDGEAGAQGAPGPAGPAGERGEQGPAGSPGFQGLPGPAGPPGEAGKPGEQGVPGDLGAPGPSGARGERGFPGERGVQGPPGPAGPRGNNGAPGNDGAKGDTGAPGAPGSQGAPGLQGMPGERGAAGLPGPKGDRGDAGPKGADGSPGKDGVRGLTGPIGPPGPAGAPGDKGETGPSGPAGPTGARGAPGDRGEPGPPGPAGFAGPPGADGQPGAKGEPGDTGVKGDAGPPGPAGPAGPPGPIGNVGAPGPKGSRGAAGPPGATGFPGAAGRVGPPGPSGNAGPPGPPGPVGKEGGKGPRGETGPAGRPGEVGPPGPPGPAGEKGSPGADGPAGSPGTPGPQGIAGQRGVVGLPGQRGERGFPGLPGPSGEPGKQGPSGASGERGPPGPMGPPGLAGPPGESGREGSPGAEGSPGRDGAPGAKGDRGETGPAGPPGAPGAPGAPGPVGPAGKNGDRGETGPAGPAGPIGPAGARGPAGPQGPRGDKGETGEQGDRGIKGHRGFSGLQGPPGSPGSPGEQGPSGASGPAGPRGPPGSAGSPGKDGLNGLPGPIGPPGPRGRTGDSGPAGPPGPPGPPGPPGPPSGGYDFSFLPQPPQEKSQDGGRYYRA
T2 sequence (P02466 86-1125 limits assumed): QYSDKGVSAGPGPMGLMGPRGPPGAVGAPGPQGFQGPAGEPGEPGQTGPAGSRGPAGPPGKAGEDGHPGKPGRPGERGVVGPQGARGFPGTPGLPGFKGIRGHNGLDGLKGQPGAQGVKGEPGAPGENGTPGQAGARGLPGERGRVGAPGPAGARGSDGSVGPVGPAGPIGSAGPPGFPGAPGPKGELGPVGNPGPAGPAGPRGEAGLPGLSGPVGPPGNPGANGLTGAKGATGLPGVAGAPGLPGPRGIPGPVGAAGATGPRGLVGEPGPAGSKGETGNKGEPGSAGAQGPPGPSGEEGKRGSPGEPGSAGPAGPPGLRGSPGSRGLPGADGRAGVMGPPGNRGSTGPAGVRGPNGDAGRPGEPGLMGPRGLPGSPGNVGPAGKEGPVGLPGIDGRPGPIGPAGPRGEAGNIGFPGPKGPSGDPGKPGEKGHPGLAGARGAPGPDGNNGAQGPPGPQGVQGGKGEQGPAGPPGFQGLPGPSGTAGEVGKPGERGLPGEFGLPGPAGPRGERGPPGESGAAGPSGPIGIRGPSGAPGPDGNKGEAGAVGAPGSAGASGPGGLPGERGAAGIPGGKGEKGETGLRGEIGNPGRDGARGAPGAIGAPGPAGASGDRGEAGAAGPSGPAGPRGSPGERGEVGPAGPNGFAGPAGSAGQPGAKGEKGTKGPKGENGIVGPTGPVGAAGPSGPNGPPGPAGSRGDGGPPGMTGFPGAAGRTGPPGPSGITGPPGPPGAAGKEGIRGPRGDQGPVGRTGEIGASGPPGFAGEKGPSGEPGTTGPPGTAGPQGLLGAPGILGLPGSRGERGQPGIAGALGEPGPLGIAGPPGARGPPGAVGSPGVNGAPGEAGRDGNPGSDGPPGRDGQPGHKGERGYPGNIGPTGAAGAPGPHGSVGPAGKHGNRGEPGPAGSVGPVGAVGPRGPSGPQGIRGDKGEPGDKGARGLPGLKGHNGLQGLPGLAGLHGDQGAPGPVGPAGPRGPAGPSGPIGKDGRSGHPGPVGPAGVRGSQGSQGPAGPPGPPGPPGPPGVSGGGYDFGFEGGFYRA
T1 sequence (P05067 672-711): as the sequence (P05067 672-711) above

| Molecule | Disaggregation of fibrillar forms of native and glycated β-amyloid, in words [1] | IgG-AGE bound to RBC surface, in words [2] | AGE-breaking activity (cleavage of cross-linked collagen-AGE-BSA), in words [3] | Concentration dependence of AGE-BSA-collagen crosslink breaking, in words [3] | Overall AGE-breaking property, in words ([3]; overall judgement of the patent's tests) | Cleaving crosslinks formed in skin and tail collagen, in words [4] | Disaggregation of β-amyloid fibrils, in words (β-amyloid fibrils) |
| --- | --- | --- | --- | --- | --- | --- | --- |
| 1,4-benzene-bis[4-methyleneaminophenoxyisobutyric acid] [LR102] | clearly confirmed the efficacy | almost the same IgG-AGE content as that of non-diabetic control | very effective AGE-breakers | more potent at lower concentrations | most effective AGE-breakers |  |  |
| Cc1sc[n+](CC(=O)c2ccccc2)c1C.[Cl-] [ALT711] |  |  |  |  |  | not effective |  |
| O=C(C[n+]1ccsc1)c1ccccc1.[Br-] [PTB, N-phenacylthiazolium bromide] |  |  |  |  |  |  | disaggregates β-amyloid fibrils |
| methylene bis [LR90, methylene bis [4,4′-(2-chlorophenylureidophenoxyisobutyric acid)]] | clearly confirmed the efficacy |  | very effective AGE-breakers | more effective breakers at higher concentrations |  |  |  |
